In patent publication US9839674B2, “Methods of inducing indolamine 2,3—dioxygenase (IDO)” (IDOGEN AB, priority 2010, dated 2017):

What was measured:
[1] = test system: IDO1 expression in THP-1 cells; test: IDO1 expression in THP-1 cells by PCR / quantitative real-time PCR; assay type: cell-based, human; conditions: for IDO1 expression (relative value): zebularine 100 uM, interferon gamma 200 IU/ml, alone or both together, FIG. 1
Description: (§1) THP-1 (ATCC: TIB-202) is a human monocytic cell line that originates from an acute monocytic leukemia. It has the phenotype of monocytes but can be differentiated to a more dendritic phenotype. In the current study, the THP-1 cells were in vitro passaged in RPMI 1640 medium supplemented with 5% or 10% FCS, 10 mM Hepes, 1 mM Sodium pyruvate, and 50 ug/ml gentamicin (R5 or R10 medium respectively). The cell density was adjusted to 200 000 cells per ml, and the cultures were incubated for four to seven days at 37° C. with 10% CO2 in a humidified incubator. The substance, or combination of substances, being studied, were added to the medium at specified time points and in the case of IFN-gamma removed from medium as indicated. 96-168 hours after initiation of treatment, the IDO expression was assessed by PCR or by Quantitative PCR (Roche). RNA was extracted from cells cultured in flasks or six-well plates using Trizol reagent according to Invitrogen's protocol. Residual DNA was removed through Rnase free DNase (Roche Applied Science) treatment. Quality and quantity of the isolated RNA was measured by spectrophotometer and gel electrophoresis.
Quantitative real-time PCR analyses (qRT-PCR) were performed using Super-Script III Platinum Two-Step qRT-PCR Kit with SYBR Green (Invitrogen). A total of 100-500 ng total RNA was used in a 20 ul RT reaction using a mixture of polydT and random hexamer primers. The cDNA obtained was diluted to a total volume of 80 ul and stored at −20° C. The primer sequences for the different genes were designed using Gene Fisher software support (G. Giegerich, F. Meyer, C. Schleiermacher, ISMB-96). The primers used for amplification of the IDO gene were: Forward: SEQ ID NO: 5—5′-[…]-3′, Primer sequences, Reverse: SEQ ID NO: 6—TTTCACA-CAGGCGTCATAAGCT-3′.
Hypoxanthine guanine phosphoribosyl transferase (HPRT) HPRT Forward: SEQ ID NO: 7—5′-[…]-3′, HPRT Reverse: SEQ ID NO: 8—5′-[…]-3′ according to the cDNA sequence, were used. The qRT-PCR was performed in 20 ul reaction consisting of 2 ul diluted cDNA (12.5 ng), 0.3 uM of each primer, 1 ul bovine serum albumin (50 ug/ml), and 10 ul Platinum SYBR Green qRT-PCR superMix-UDG. The amplification of IDO was carried out in a Light Cycler (Roche Molecular Biochemicals) with the following thermal profile: Platinum SYBR Green qRT-PCR superMix-UDG incubation at 50° C. for 2 min, then denaturing at 95° C. for 5 min, followed by 45 cycles at 94° C. for 2 s, 58° C. for 10 s, and 72° C. for 14 s. The amplification of HPRT was carried out as follows, UDG incubation at 50° C. for 2 min, denaturing at 95° C. for 5 min, followed by 45 cycles at 94° C. for 2 s, 55° C. for 10 s, and 72° C. for 14 s. After amplification a melting curve analysis was performed. The qRT-PCR experiments were always run in triplicate.

[2] = test system: allotransplanted Lewis rat pancreatic islets; test: Rejection of allotransplanted pancreatic islets beneath the kidney capsule (blood glucose follow up); assay type: in vivo; conditions: Fischer 344 rats, 225 mg/kg intraperitoneal daily for 14 days starting 6-8 days after transplantation, FIG. 16
Description: Pancreatic islets were isolated from the pancreas of Lewis rats by established technique. After culture at 37° C. over night, 500-1200 islets were implanted beneath the kidney capsule of adult (11-14 weeks old) Fischer 344 rats that were confirmed hyperglucemic (blood glucose >20 mMol/L) after having received a single dose of 35-40 mg/kg intraperitoneally of Streptozotocine, which is selectively toxic to the insulin producing beta cells present in the pancreatic islets. […] The two exceptional rats that maintained a normal blood sugar were subjected to nephrectomy 40 and 43 days after transplantation to check whether their normal blood glucose was a result of unexpected sustained survival of the grafted islets (in which case their blood sugar should promptly increase upon removal of the graft) or was due to a recovery of some Streptozotocine-damaged pancreatic islets (in which case their blood sugar should stay normal despite removal of the graft). […] Twenty two days after transplantation only 1/10 of the zebularine treated rats had rejected the graft as indicated by a normal blood sugar in all but this single rat at completion of the treatment 20-22 days after transplantation and in all of 7 analyzed >1 week after the zebularine treatment was stopped (FIG. 16).

[3] = test system: IDO1 expression in THP-1 cells; test: IDO1 expression in THP-1 cells by reverse transcriptase PCR (bands), kinetics; assay type: cell-based, human
Description: as §1
The sequences of forward primers and reverse primers for the human IDO-1 gene analyzed and the house-keeping gene HPRT respectively, were: IDO-1 forward: 5′-[…]-3′, reverse: 5′-C AGAC AAAT AT A TGCGAAGAAC; HPRT Forward: 5′-[…]-3′, HPRT Reverse: 5′-ACTAAGCAGATGGCCAC AGAA-3′. The PCR conditions were set as follows: 1 denaturing cycle at 94° C. for 2 min followed by 40 cycles (for the IDO-1) or 30 cycles (for the HPRT) at 94° C. for 15 s, 53° C. for 30 s, and 72° C. for 30 s with a final extension reaction at 72° C. for 5 min.
Materials and methods used were the same as described in Example 1 above. […] In panel B, the THP-1 cells were given zebularine alone during 5 days and a weak band was detected. […] In panel C the THP-1 cells were exposed to zebularine for 6 days and interferon gamma was given during 24 hours after four days and the cells were harvested after a total of 6 days. […]

[4] = IFN-g 100 iu/ml or IFN-A alone for 24 h (day 4), FIG. 11
[5] = IFN-g 100 iu/ml or interferon A 25 ng/ml alone for 24 h (day 4), FIG. 12

Row | Compound | IDO1 expression (relative value) [1] | rats that had rejected the graft twenty two days after transplantation [2] | IDO1 expression after 168 h of culture [1, 4] | IDO1 expression after 168 h of culture [1, 5] | IDO1 expression (RT-PCR band), panel B ([3]; zebularine 5 days, interferon gamma after 3 days for 24 h, tested 24 hours after removal, FIG. 6B) | IDO1 expression (RT-PCR band), panel C ([3]; zebularine 6 days, interferon gamma 24 hours after four days, harvest after 6 days, FIG. 6C) | IDO1 expression (RT-PCR band), panel A ([3]; zebularine four days, interferon gamma added after 3 days, 24 hours before harvest, FIG. 6A) | course of IDO1 induction after the first 24 hours ([1]; interferon gamma 200 IU/ml initial 24 h, alone or with zebularine 100 uM for the entire period, harvest 48-96 h, FIG. 5) | IDO1 expression after 10, 12 or 14 days of culture ([1]; interferon gamma 200 iu/ml alone for 24 h on day 4, FIG. 10) | IDO1 induction after 24 hours ([1]; zebularine 100 uM or interferon gamma 200 IU/ml alone, harvest 24 h, FIG. 5)
1 | O=c1ncccn1[C@@H]1O[C@H](CO)[C@@H](O)[C@H]1O [zebularine, reference compound] | 9 | 1/10 | – | – | – | – | – | – | – | –
2 | interferon A | – | – | minimal | minimal | – | – | – | – | – | –
3 | interferon gamma: interferon gamma (Sigma), IDO inducer | 80 | – | minimal | minimal | weak band | almost no IDO1 induction | strong band | not sustained and dropped rapidly | minimal | strong
